One assay deals with T1, 5-HT2A receptor (Rattus norvegicus, UniProt P14842).
T1 construct: from tissue; host or cells: rat brain (frontal cortex vs cerebellum), in vivo
In words: 5-HT2A receptor occupancy in vivo (MDL 100907 tracer). Particulars: oral gavage, 1 hr. before tracer. Set-up: species or system male Sprague-Dawley rats. The method, then: Briefly, male Sprague-Dawley rats (Harlan Sprague-Dawley, Indianapolis, Ind.) weighing approximately 230-280 g are given ad lib access to food and water until the beginning of the 3 hr. experimental protocol. 1 mg/Kg ketanserin (non-selective 5-HT2A antagonist) is used as a positive control to establish assay validity. Test compounds or control are administered by oral gavage in a vehicle comprised of 20% hydroxypropyl beta-cyclodextrin. MDL 100907 ((R)-(+)-α-(2,3-Dimethoxyphenyl)-1-[2-(4-fluorophenyl)ethyl]-4-piperidinemethanol), a selective 5-HT2A antagonist, is used as a tracer. […] It is at the time of tracer administration that receptor occupancy (RO) is considered to be measured. […] The level of MDL 100907 tracer is measured in each cortical and cerebellar sample. RO is calculated using the well-established ratio method which employs a region of high receptor density representative of total binding (frontal cortex) normalized by an area without or with very low levels of receptor (cerebellum). […]
MDL 100907 Analysis: Cortex and cerebellar samples are weighed and placed in conical centrifuge tubes on ice. […] Standards are prepared by adding known quantities of analyte to brain tissue samples from non-treated rats and processing as described above.+− […]

In assay [1] the target is recombinant human 5-HT2A receptor (Homo sapiens, UniProt P28223). In words: 5-HT2A inverse agonism, [35S]GTPγS binding to AV12 membranes (human receptor). In kind it is biochemical. On the set-up: expressed in transfected cells; host or cells: AV12 cells, membranes. As for the experimental part:
The inverse agonist activity of compounds of the present invention may be determined by literature recognized assay methods measuring [^35S]GTPγS binding to membranes transfected with 5-HT2A receptors in an in vitro activity assay essentially as described below.
Membranes are prepared from frozen pellets of whole AV12 cells expressing the human or rat 5-HT2A receptor. Cells are thawed on ice and homogenized in homogenization buffer (50 mM Tris-HCl, 0.5 mM EDTA, 1 tablet/100 mL of complete EDTA free protease inhibitor tablets (Roche Cat. No. 05 056 489 001), pH=7.4) with 20 strokes of a teflon-glass homogenizer attached to a motorized overhead stirrer. Centrifuge membranes at 1000 rpm (aprox. 150×g) for 15 min. at 4° C. […] The final supernatant is discarded and the pellet is resuspended in homogenization buffer and its protein content is determined by the method of Bradford using BSA as the standard. […]
Test compound is prepared from a 10 mM DMSO stock solution by serial dilution to provide a 10 point concentration response curve, with a final 1% DMSO concentration when added to the assay mixture. […] This mixture is incubated for 3 hr. with constant shaking at room temperature, centrifuged at 300 rpm for 1 min. with no brake and incubated for 3 more hr. before reading in a microplate scintillation counter.
(GTPγS is a poorly hydrolysed GTP analogue; its binding reports G protein activation.)

Sequence of recombinant human 5-HT2A receptor (P28223 whole entry): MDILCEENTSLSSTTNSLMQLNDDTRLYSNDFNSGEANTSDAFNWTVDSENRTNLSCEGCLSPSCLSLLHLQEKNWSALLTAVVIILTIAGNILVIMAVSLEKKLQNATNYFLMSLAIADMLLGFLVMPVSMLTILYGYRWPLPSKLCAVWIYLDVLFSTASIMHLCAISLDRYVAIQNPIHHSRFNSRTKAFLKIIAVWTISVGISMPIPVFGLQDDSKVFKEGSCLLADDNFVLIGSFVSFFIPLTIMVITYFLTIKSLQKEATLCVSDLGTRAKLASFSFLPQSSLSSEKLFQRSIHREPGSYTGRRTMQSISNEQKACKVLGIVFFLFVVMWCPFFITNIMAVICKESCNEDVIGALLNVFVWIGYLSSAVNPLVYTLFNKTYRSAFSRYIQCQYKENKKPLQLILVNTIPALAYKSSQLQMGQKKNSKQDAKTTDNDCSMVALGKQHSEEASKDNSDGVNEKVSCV
T1 sequence (P14842 whole entry): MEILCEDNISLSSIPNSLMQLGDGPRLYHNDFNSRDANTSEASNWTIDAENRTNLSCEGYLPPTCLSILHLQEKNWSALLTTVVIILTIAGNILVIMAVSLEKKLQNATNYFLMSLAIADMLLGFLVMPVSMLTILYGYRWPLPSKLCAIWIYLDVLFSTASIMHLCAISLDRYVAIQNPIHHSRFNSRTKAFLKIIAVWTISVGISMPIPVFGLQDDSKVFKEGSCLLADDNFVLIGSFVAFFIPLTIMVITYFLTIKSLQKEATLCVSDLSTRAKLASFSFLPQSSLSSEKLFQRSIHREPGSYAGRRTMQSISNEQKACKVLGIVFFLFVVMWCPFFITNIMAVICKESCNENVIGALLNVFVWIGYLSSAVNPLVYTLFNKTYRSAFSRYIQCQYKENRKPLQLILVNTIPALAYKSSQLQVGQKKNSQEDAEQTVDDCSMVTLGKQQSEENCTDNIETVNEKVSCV

What is called ED50 is the midpoint of the dose-response relation. What is called EC50 is the concentration that produces a half-maximal response. The compound `Cc1ccc2c(c1)Oc1sc(SC(C)C)cc1C(N1CCN(CC(C)(C)C(=O)O)CC1)=N2` [Example 1, 3-[4-(2-isopropylsulfanyl-8-methyl-thieno[2,3-b][1,5]benzoxazepin-4-yl)piperazin-1-yl]-2,2-dimethyl-propanoic acid] gave an ED50 on 5-HT2A receptor of 0.54 mg/kg. Further, in assay [1], the “5-HT2A inverse agonism (in words)” value is “inverse agonist of the 5-HT2A receptor”. Moreover, the EC50 in assay [1] (recombinant human receptor, n=2, read-out: EC50, inhibition of intrinsic activity of the 5-HT2A receptor) is 85 nM.

The record behind these values is US20150322083A1, “(THIENO[2,3-b][1,5]BENZOXAZEPIN-4-YL)PIPERAZIN-1-YL COMPOUNDS AS SELECTIVE 5-HT2A INVERSE AGONISTS” (Eli Lilly and Company, priority 2014, published 2015).
